In patent US10117916B2, “Peptides and combination of peptides for use in immunotherapy against CLL and other cancers” (immatics biotechnologies GmbH, priority 2015, dated 2018):

Columns and labels:
[1] = tested on: CD8+ T cells; assay: In vitro immunogenicity: T-cell priming with aAPCs loaded with peptide/MHC and anti-CD28, pMHC multimer readout; type: cell-based, human; conditions: HLA-A*02 restricted peptides; CD8+ T cells of healthy donors; three stimulation cycles
Protocol: In an aspect, the peptides are pre-screened for immunogenicity before being included in the warehouse. By way of example, and not limitation, the immunogenicity of the peptides included in the warehouse is determined by a method comprising in vitro T-cell priming through repeated stimulations of CD8+ T cells from healthy donors with artificial antigen presenting cells loaded with peptide/MHC complexes and anti-CD28 antibody.
CD8+ T cells were primed using artificial APCs coated with anti-CD28 mAb and HLA-A*02 in complex with SeqID No 1 peptide (FIG. 3C, left panel), SeqID No 5 peptide (FIG. 3D left panel), SeqID No 32 peptide (FIG. 3E, left panel) and SeqID No 220 peptide (FIG. 3F, left panel), respectively. After three cycles of stimulation, the detection of peptide-reactive cells was performed by 2D multimer staining with A*02/SeqID No 1 (FIG. 3C), A*02/SeqID No 5 (FIG. 3D), A*02/SeqID No 32 (FIG. 3E) or A*02/SeqID No 220 (FIG. 3F). Right panels (FIGS. 3C, 3D, 3E and 3F) show control staining of cells stimulated with irrelevant A*02/peptide complexes. Viable singlet cells were gated for CD8+ lymphocytes. Boolean gates helped excluding false-positive events detected with multimers specific for different peptides.
In order to obtain information regarding the immunogenicity of the TUMAPs of the present invention, the inventors performed investigations using an in vitro T-cell priming assay based on repeated stimulations of CD8+ T cells with artificial antigen presenting cells (aAPCs) loaded with peptide/MHC complexes and anti-CD28 antibody.
In order to perform in vitro stimulations by artificial antigen presenting cells loaded with peptide-MHC complex (pMHC) and anti-CD28 antibody, the inventors first isolated CD8+ T cells from fresh HLA-A*02 leukapheresis products via positive selection using CD8 microbeads (Miltenyi Biotec, Bergisch-Gladbach, Germany) of healthy donors obtained from the University clinics Mannheim, Germany, after informed consent.
PBMCs and isolated CD8+ lymphocytes were incubated in T-cell medium (TCM) until use consisting of RPMI-Glutamax (Invitrogen, Karlsruhe, Germany) supplemented with 10% heat inactivated human AB serum (PAN-Biotech, Aidenbach, Germany), 100 U/ml Penicillin/100 μg/ml Streptomycin (Cambrex, Cologne, Germany), 1 mM sodium pyruvate (CC Pro, Oberdorla, Germany), 20 μg/ml Gentamycin (Cambrex). 2.5 ng/ml IL-7 (PromoCell, Heidelberg, Germany) and 10 U/ml IL-2 (Novartis Pharma, Nirnberg, Germany) were also added to the TCM at this step.
Generation of pMHC/anti-CD28 coated beads, T-cell stimulations and readout was performed in a highly defined in vitro system using four different pMHC molecules per stimulation condition and 8 different pMHC molecules per readout condition.
The purified co-stimulatory mouse IgG2a anti human CD28 Ab 9.3 (Jung et al., 1987) was chemically biotinylated using Sulfo-N-hydroxysuccinimidobiotin as recommended by the manufacturer (Perbio, Bonn, Germany). Beads used were 5.6 μm diameter streptavidin coated polystyrene particles (Bangs Laboratories, Illinois, USA).
800.000 beads/200 μl were coated in 96-well plates in the presence of 4×12.5 ng different biotin-pMHC, washed and 600 ng biotin anti-CD28 were added subsequently in a volume of 200 μl. Stimulations were initiated in 96-well plates by co-incubating 1×10^6 CD8+ T cells with 2×10^5 washed coated beads in 200 μl TCM supplemented with 5 ng/ml IL-12 (PromoCell) for 3 days at 37° C. Half of the medium was then exchanged by fresh TCM supplemented with 80 U/ml IL-2 and incubating was continued for 4 days at 37° C. This stimulation cycle was performed for a total of three times. For the pMHC multimer readout using 8 different pMHC molecules per condition, a two-dimensional combinatorial coding approach was used as previously described (Andersen et al., 2012) with minor modifications encompassing coupling to 5 different fluorochromes.

[2] = biological target: HLA-A*02:01 (Homo sapiens, UniProt P04439, D140Y/D185E/D98H/E176V/E277Q/G131W/G231S/I119V/I121R/I166T/I218V/L300P/L318F/N151K/N90K/P208A/P217A/Q86G/Q94H/R138H/R169H/T345S); assay: MHC binding assay: UV-ligand exchange with β2m ELISA (peptide exchange yield); conditions: MHC class I binding score; binding to HLA-A*02:01 ranged by peptide exchange yield (UV-ligand exchange, β2m ELISA)
In short: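 UV-cleavable peptide in HLA monomers exchanged for test peptide by UV irradiation; exchange yield measured by streptavidin-capture ELISA with HRP anti-β2m (TMB, 450 nm) on 100-fold diluted complexes. Quantified against refolded HLA-A*02:01/MLA-001 standards (15-500 ng/ml).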

| Substance | Wells positive [%] [1] | Peptide Exchange [2] |
| --- | --- | --- |
| 200 (YMFEEVPIVI; listed as Homo sapiens) [compound 200] | ″+″ (<20% = +) | ″++++″ (≥75% = ++++) |
| 332 (VMIQHVENL; listed as Homo sapiens) [compound 332] | ″+″ (<20% = +) | ″+++″ (≥50 = +++) |
| 220 (ALPEILFAKV; listed as Homo sapiens) [compound 220] | ″++″ (20%-49% = ++) | ″+++″ (≥50 = +++) |
| 81 (WLVGQEFEL; listed as Homo sapiens) [compound 81] | ″+″ (<20% = +) | ″+++″ (≥50 = +++) |
| 17 (ALTKTNLQL; listed as Homo sapiens) [compound 17] | ″+″ (<20% = +) | ″+++″ (≥50 = +++) |
| 201 (YQLELHGIEL; listed as Homo sapiens) [compound 201] | ″+″ (<20% = +) | ″++++″ (≥75% = ++++) |
| 320 (TIAPVTVAV; listed as Homo sapiens) [compound 320] | ″+″ (<20% = +) | ″++++″ (≥75% = ++++) |
| 32 (FIDKFTPPV; listed as Homo sapiens) [compound 32] | ″++++″ (> = 70% = ++++) | ″++++″ (≥75% = ++++) |
| 26 (AVLLVLPLV; listed as Homo sapiens) [compound 26] | ″+″ (<20% = +) | ″+++″ (≥50 = +++) |
| 202 (YVDDVFLRV; listed as Homo sapiens) [compound 202] | ″++″ (20%-49% = ++) | ″++++″ (≥75% = ++++) |
| 329 (VLMDGSVKL; listed as Homo sapiens) [compound 329] | ″+++″ (50%-69% = +++) | ″++++″ (≥75% = ++++) |
| 96 (ILIDKTSFV; listed as Homo sapiens) [compound 96] | ″+″ (<20% = +) | ″+++″ (≥50 = +++) |
| 86 (HLYPGAVTI; listed as Homo sapiens) [compound 86] | ″+″ (<20% = +) | ″+++″ (≥50 = +++) |
| 56 (FVFEAPYTL; listed as Homo sapiens) [compound 56] | ″++″ (20%-49% = ++) | ″+++″ (≥50 = +++) |
